From patent US20040176431A1, “Antiproliferative 2-(sulfo-phenyl)-aminothiazole derivatives and pharmaceutical compositions, and methods for their use” (Pfizer, Inc., priority 2003, published 2004)

Target: T1, CDK4/cyclin D3 (Homo sapiens, UniProt P11802)
T1 construct: made in house; host or cells: insect cells (baculovirus co-infection)
Assay: Inhibition of CDK4/Cyclin D retinoblastoma kinase activity;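 on % Inhib CDK4/D @ 1 μM: relative to DMSO control wells without compound minus no-enzyme background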
Format: biochemical
Settings: for % Inhib CDK4/D @ 0.1 μM / inhibition at 0.1 µM: test compound at 0.1 μM; for % Inhib CDK4/D @ 1 μM / inhibition at 1 µM: test compound at 1 μM (head line shifted: 'mM' printed beside 'Structure'); for % Inhib CDK4/D @ 0.03 / inhibition at 0.03 µM: test compound at 0.03 (unit cell empty, head line shifted; μM); for inhibition at 0.1 µM: read-out: % Inhib CDK4/D @ 0.1 μM; for inhibition at 1 µM: read-out: % Inhib CDK4/D @ 1 μM; for inhibition at 0.03 µM: read-out: % Inhib CDK4/D @ 0.03
In short: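 Apparent Ki derived by fitting activity at varied inhibitor concentrations to competitive (or competitive tight-binding) inhibition equations, background without enzyme subtracted. Radiometric filter-binding read-out of Rb(386-928) phosphorylation by 5 nM CDK4/cyclin D3(1-264); 25 μM ATP, pH 7.4, 2% DMSO, 30° C., 20 min, extended to 60 min for tight binders.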

T1 sequence (P11802 whole entry): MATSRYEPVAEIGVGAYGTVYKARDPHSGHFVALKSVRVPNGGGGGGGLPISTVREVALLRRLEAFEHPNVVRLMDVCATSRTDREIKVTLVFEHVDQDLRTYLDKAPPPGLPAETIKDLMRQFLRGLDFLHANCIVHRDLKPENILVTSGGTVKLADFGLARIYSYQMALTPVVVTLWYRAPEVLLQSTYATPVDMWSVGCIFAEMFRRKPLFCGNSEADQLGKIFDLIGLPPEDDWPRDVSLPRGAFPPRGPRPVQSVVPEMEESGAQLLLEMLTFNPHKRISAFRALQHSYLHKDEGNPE
T1 sequence (P30281 1-264 partner limits assumed): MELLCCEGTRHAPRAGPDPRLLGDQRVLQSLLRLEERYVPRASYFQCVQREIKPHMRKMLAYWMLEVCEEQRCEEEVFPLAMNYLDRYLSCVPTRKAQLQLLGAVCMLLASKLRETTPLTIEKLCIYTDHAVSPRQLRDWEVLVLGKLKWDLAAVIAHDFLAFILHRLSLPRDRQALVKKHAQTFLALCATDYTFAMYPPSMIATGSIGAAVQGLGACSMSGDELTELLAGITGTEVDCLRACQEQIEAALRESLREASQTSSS

| % Inhib CDK4/D @ 0.1 μM (0.1 µM) | % Inhib CDK4/D @ 1 μM | % Inhib CDK4/D @ 0.03 | inhibition at 0.1 µM | inhibition at 1 µM | inhibition at 0.03 µM | % Inhib CDK4/D @ 0.1 μM | Ki (apparent Ki, Rb fragment substrate) | SMILES |
| --- | --- | --- | --- | --- | --- | --- | --- | --- |
| 41% | 36.8% | −9.9% |  |  |  |  |  | Nc1nc(Nc2ccc(S(=O)(=O)CCN3CCCC3)cc2)sc1C(=O)c1c(Cl)cccc1Cl [DD(207)] |
| 36% | 47.8% | 0.2% |  |  |  |  |  | Nc1nc(Nc2ccc(S(=O)(=O)Cc3ncon3)cc2)sc1C(=O)c1c(Cl)cccc1Cl [DD(208)] |
| 8% | −21% | −10% |  |  |  |  |  | Nc1nc(Nc2ccc(S(=O)(=O)CC3CNC(=O)O3)cc2)sc1C(=O)c1c(Cl)cccc1Cl (stereo not shown) [DD(209)] |
|  |  |  | 21% | -37% | -22% |  |  | CN(C)CCCS(=O)(=O)c1ccc(N(C)c2nc(N)c(C(=O)c3c(Cl)cccc3Cl)s2)cc1 [DD(210)] |
|  | −0.2% | −11% |  |  |  | 21% |  | Nc1nc(Nc2ccc(S(=O)(=O)CCN3CCCCC3)cc2)sc1C(=O)c1c(Cl)cccc1Cl [DD(211)] |
| 17% | −14% | −16% |  |  |  |  |  | Nc1nc(Nc2ccc(S(=O)(=O)CC3CO3)cc2)sc1C(=O)c1c(Cl)cccc1Cl (stereo not shown) [DD(212)] |
| 14% | −11% | −22% |  |  |  |  |  | CC(C)CCS(=O)(=O)c1ccc(Nc2nc(N)c(C(=O)c3c(Cl)cccc3Cl)s2)cc1 [DD(213)] |
| 29% | 60.6% | −10% |  |  |  |  |  | COCCS(=O)(=O)c1ccc(Nc2nc(N)c(C(=O)c3c(Cl)cccc3Cl)s2)cc1 [DD(214)] |
| 25% | 4.9% | −15% |  |  |  |  |  | Nc1nc(Nc2ccc(S(=O)(=O)CC(=O)Nc3ccccc3)cc2)sc1C(=O)c1c(Cl)cccc1Cl [DD(215)] |
| 20% | 47.1% | 12% |  |  |  |  |  | Nc1nc(Nc2ccc(S(=O)(=O)CC3CC3)cc2)sc1C(=O)c1c(Cl)cccc1Cl [DD(216)] |
| 39% | −21% | −8% |  |  |  |  |  | COc1cccc(CS(=O)(=O)c2ccc(Nc3nc(N)c(C(=O)c4c(Cl)cccc4Cl)s3)cc2)c1 [DD(217)] |
| 33% | 23.4% | −12% |  |  |  |  |  | Nc1nc(Nc2ccc(S(=O)(=O)CC3CCCO3)cc2)sc1C(=O)c1c(Cl)cccc1Cl (stereo not shown) [DD(218)] |
| 22% | 19.5% | 3.3% |  |  |  |  |  | CN1CCCC1CCS(=O)(=O)c1ccc(Nc2nc(N)c(C(=O)c3c(Cl)cccc3Cl)s2)cc1 (stereo not shown) [DD(219)] |
| 30% | 26.3% | −19% |  |  |  |  |  | CC1(CS(=O)(=O)c2ccc(Nc3nc(N)c(C(=O)c4c(Cl)cccc4Cl)s3)cc2)CO1 (stereo not shown) [DD(220)] |
| 21% | 17.6% | −14% |  |  |  |  |  | NC(=O)CS(=O)(=O)c1ccc(Nc2nc(N)c(C(=O)c3c(Cl)cccc3Cl)s2)cc1 [DD(221)] |
| −11% | −11% | −9% |  |  |  |  |  | CCOC(=O)CCS(=O)(=O)c1ccc(Nc2nc(N)c(C(=O)c3c(Cl)cccc3Cl)s2)cc1 [DD(222)] |
| 35% | 11.7% | −11% |  |  |  |  |  | CC(C)OC(=O)CS(=O)(=O)c1ccc(Nc2nc(N)c(C(=O)c3c(Cl)cccc3Cl)s2)cc1 [DD(223)] |
| 12% | 9.8% | −2.6% |  |  |  |  |  | CC(C)=CCS(=O)(=O)c1ccc(Nc2nc(N)c(C(=O)c3c(Cl)cccc3Cl)s2)cc1 [DD(224)] |

| % Inhib CDK4/D @ 0.1 μM (0.1 µM) | % Inhib CDK4/D @ 1 μM | % Inhib CDK4/D @ 0.03 | inhibition at 0.1 µM | inhibition at 1 µM | inhibition at 0.03 µM | % Inhib CDK4/D @ 0.1 μM | Ki (apparent Ki, Rb fragment substrate) | SMILES |
| --- | --- | --- | --- | --- | --- | --- | --- | --- |
| 17% | 0.6% | −5% |  |  |  |  |  | CCCS(=O)(=O)c1ccc(Nc2nc(N)c(C(=O)c3c(Cl)cccc3Cl)s2)cc1 [DD(225)] |
| 18% | −3.9% | −6.3% |  |  |  |  |  | COC(=O)CS(=O)(=O)c1ccc(Nc2nc(N)c(C(=O)c3c(Cl)cccc3Cl)s2)cc1 [DD(226)] |
| 16% | 15.2% | −12% |  |  |  |  |  | CN1CCCC(CS(=O)(=O)c2ccc(Nc3nc(N)c(C(=O)c4c(Cl)cccc4Cl)s3)cc2)C1 (stereo not shown) [DD(227)] |
| 29% | 43% | 1% |  |  |  |  |  | NC(=O)CCS(=O)(=O)c1ccc(Nc2nc(N)c(C(=O)c3c(Cl)cccc3Cl)s2)cc1 [DD(228)] |
| 23% | 3.5% | −13% |  |  |  |  |  | Nc1nc(Nc2ccc(S(=O)(=O)CCO)cc2)sc1C(=O)c1c(Cl)cccc1Cl [DD(229)] |
| 20% | −1.6% | −17% |  |  |  |  |  | CC(C)CCCS(=O)(=O)c1ccc(Nc2nc(N)c(C(=O)c3c(Cl)cccc3Cl)s2)cc1 [DD(230)] |
|  |  |  | 27% | 33.3% | -1.8% |  |  | CC(C)CCOC(=O)CS(=O)(=O)c1ccc(N(C)c2nc(N)c(C(=O)c3c(Cl)cccc3Cl)s2)cc1 [DD(231)] |
|  |  |  | 26% | 17.6% | 3.7% |  |  | CN(C)CCS(=O)(=O)c1ccc(Nc2nc(N)c(C(=O)c3c(Cl)cccc3Cl)s2)cc1 [DD(232)] |
|  |  |  | 11% | -12% | 8.4% |  |  | CCOCCS(=O)(=O)c1ccc(Nc2nc(N)c(C(=O)c3c(Cl)cccc3Cl)s2)cc1 [DD(233)] |
|  |  |  | 35% | 26.1% | 9.6% |  |  | CN(c1ccc(S(=O)(=O)CC(O)CO)cc1)c1nc(N)c(C(=O)c2c(Cl)cccc2Cl)s1 (stereo not shown) [DD(234)] |
|  |  |  | 27% | 6.9% | 7.7% |  |  | Nc1nc(Nc2ccc(S(=O)(=O)Cc3ccncc3)cc2)sc1C(=O)c1c(Cl)cccc1Cl [DD(235)] |
|  |  |  | 30% | 1.7% | -0.4% |  |  | CCC(CC)CS(=O)(=O)c1ccc(Nc2nc(N)c(C(=O)c3c(Cl)cccc3Cl)s2)cc1 [DD(236)] |
| 22% | 7.3% | −1.7% |  |  |  |  |  | CC(=O)OCCS(=O)(=O)c1ccc(Nc2nc(N)c(C(=O)c3c(Cl)cccc3Cl)s2)cc1 [DD(237)] |
|  |  |  | 22% | 21.5% | -19% |  |  | CC(C)OC(=O)CCS(=O)(=O)c1ccc(N(C)c2nc(N)c(C(=O)c3c(Cl)cccc3Cl)s2)cc1 [DD(238)] |
| 27% | 8% | 12% |  |  |  |  |  | Nc1nc(Nc2ccc(S(=O)(=O)CCN3CCOCC3)cc2)sc1C(=O)c1c(Cl)cccc1Cl [DD(239)] |
| 11% | 8.7% | 6.8% |  |  |  |  |  | CC(C)(CO)CS(=O)(=O)c1ccc(Nc2nc(N)c(C(=O)c3c(Cl)cccc3Cl)s2)cc1 [DD(240)] |
|  |  |  |  |  |  |  | 74 nM | CSc1cccc(Nc2nc(N)c(C(=O)c3c(Cl)cccc3Cl)s2)c1 [R(3), 4-Amino-5-(2,6-dichlorobenzoyl)-2-(3-methylthio-phenylamino)-thiazole] |
